Test results taken from US11542316B2, “S-Arrestin peptides and therapeutic uses thereof” (APITOPE INTERNATIONAL NV, priority 2017, dated 2023).
Ends that are not written are not given here.

How the values were obtained:
[1] = test system: SAg-specific hybridoma cells / T cell line with VAVY APC; assay: Antigen Processing Independent Presentation System (APIPS) assay, fresh or fixed VAVY APC; assay type: cell-based, DR3 mice; details: DR3 hybridoma clone (IL-2, 48 h) or T cell line (IFN-γ, 24 h)
Protocol: (§1) FIG. 2: identification of apitopes within HIP-115. (A) DR3 mice were immunized with SAg and hybridomas were generated. 5×10^4 SAg-specific hybridoma cells were cultured with 5×10^4 fresh or fixed commercial APC (VAVY) cells. T cell proliferation was measured by IL-2 ELISA on supernatants collected after 48 h. The graph represents the mean of duplicate measurements±SEM. (B) DR3 mice were immunized with HIP-115 and a T cell line was established. Ten days after immunization the LN and spleens were harvested and cultured with different concentrations of peptide (0.1-1-2.5 and 5 μg/ml); 2×10^6 cells/ml APC+1×10^6 cells/ml CD4 T cells per well. At day 7 the cells were re-stimulated with the same concentrations of peptide. On day 14 an APIPS test was done using commercial APC (VAVY). After 24 h, antigen-induced T cell activation was measured by IFN-γ ELISA and shown as IFN-γ concentration (pg/ml). The graph represents the mean of duplicate measurements±SEM. LN, lymph nodes; APC, Antigen presenting cell; APIPS, Antigen Processing Independent Presentation System.
as §1, with “3:” for “2:”, “HIP-241125.” for “HIP-115.”, “HIP-241125+HIP-24DG” for “HIP-115”
(§2) FIG. 5: Identification of apitopes within HIP-17GN. DR3 mice were immunized with HIP-17GN and a T cell line was established. Ten days after immunization the LN and spleens were harvested and cultured with different concentrations of peptide (0.1-1-2.5 and 5 μg/ml); 2×10^6 cells/ml APC+1×10^6 cells/ml CD4 T cells per well. At day 7 the cells were re-stimulated with the same concentrations of peptide. On day 14 an APIPS test was done using commercial APC (VAVY). After 24 h, antigen-induced T cell activation was measured by IFN-γ ELISA and shown as OD values. The graph represents the mean of triplicate measurements±SEM. LN, lymph nodes; APC, Antigen presenting cell; APIPS, Antigen Processing Independent Presentation System.
as §2, with “6:” for “5:”, “HIP-12AK.” for “HIP-17GN.”, “HIP-12AK” for “HIP-17GN”, “IFN-γ concentration (pg/ml).” for “OD values.”, “duplicate” for “triplicate”
Antigen-specific clones or TCL were tested for their reactivity to the peptides, presented by fixed or not fixed (fresh) cells (VAVY or MGAR) (=APCs). 5×10^4 cells from the individual clones were cultured with 10 μg/ml peptide and 5×10^4 fixed or fresh APCs. […]

[2] = test system: LN cells and splenocytes upon SAg or peptide restimulation; assay: Ex vivo tolerization experiment, DR3tg mice; assay type: in vivo; details: DR3 mice, IFN-γ; for tolerization against SAg: escalating dose regime s.c.
Protocol: FIG. 7: Ex vivo tolerisation protocol. Mice are injected subcutaneously in the flank with 0.1 μg/ml, 1 μg/ml and 10 μg/ml peptide on days −15, −13 and −11, followed by 3 injections of 100 μg/ml on days −8, −6 and −4 (escalating dose regime). On day 0, mice are immunized subcutaneously at the base of the tail with SAg/CFA or peptide/CFA. Mice are sacrificed 10 days after immunization to measure proliferation of LN cells and splenocytes upon SAg or peptide restimulation. LN, lymph nodes.
FIG. 8: Ex vivo tolerance induction by HIP-115NE3-KKK apitope. DR3 mice are injected subcutaneously in the flank with 0.1 μg/ml, 1 μg/ml and 10 μg/ml HIP-115NE3-KKK on days −15, −13 and −11, followed by 3 injections of 100 μg/ml on days −8, −6 and −4 (escalating dose regime). On day 0, mice are immunized subcutaneously at the base of the tail with HIP-115/CFA. Mice are sacrificed 10 days after immunization to measure proliferation of LN cells and splenocytes upon SAg or peptide restimulation. Data represent mean±SEM of the concentration or OD values for the PBS-treated mice (black lines) and peptide-treated mice (color lines). Two-way ANOVA was used to measure overall treatment effects on T cell activation and p-values are written in the graphs. Bonferonni post-hoc testing was used and significant differences are indicated in the graphs (* p<0.05; **** p<0.0001). LN, lymph nodes. (A) Tolerisation against SAg in LN. IFN-γ production expressed as IFN-γ concentration (pg/ml). (B) Tolerisation against SAg in spleen. IFN-γ production expressed as IFN-γ concentration (pg/ml). (C) Tolerisation against HIP-115 and HIP-115NE3 peptides in LN. IFN-γ production expressed as OD values. (D) Tolerisation against HIP-115 and HIP-115NE3 peptides in spleen. IFN-γ production expressed as OD values.
FIG. 9: Ex vivo tolerance induction by HIP-11B apitope. DR3 mice are injected subcutaneously in the flank with 0.1 μg/ml, 1 μg/ml and 10 μg/ml HIP-11B on days −15, −13 and −11, followed by 3 injections of 100 μg/ml on days −8, −6 and −4 (escalating dose regime). On day 0, mice are immunized subcutaneously at the base of the tail with HIP-11B/CFA. Mice are sacrificed 10 days after immunization to measure proliferation of LN cells and splenocytes upon SAg or peptide restimulation. Data represent mean±SEM of the concentration values for the PBS-treated mice (black lines) and peptide-treated mice (color lines). IFN-γ production expressed as IFN-γ concentration (pg/ml). Two-way ANOVA was used to measure overall treatment effects on T cell activation and p-values are written in the graphs. Bonferonni post-hoc testing was used and significant differences are indicated in the graphs (* p<0.05; **** p<0.0001). LN, lymph nodes. (A) Tolerisation against SAg in LN. (B) Tolerisation against SAg in spleen. (C) Tolerisation against HIP-11B peptide in LN. (D) Tolerisation against HIP-11B peptide in spleen.
FIG. 10: Ex vivo tolerance induction by HIP-24DG apitope. DR3 mice are injected subcutaneously in the flank with 0.1 μg/ml, 1 μg/ml and 10 μg/ml HIP-24DG on days −15, −13 and −11, followed by 3 injections of 100 μg/ml on days −8, −6 and −4 (escalating dose regime). On day 0, mice are immunized subcutaneously at the base of the tail with HIP-24DG+HIP-24HM/CFA. Mice are sacrificed 10 days after immunization to measure proliferation of LN cells and splenocytes upon SAg or peptide restimulation. Data represent mean±SEM of the OD values for the PBS-treated mice (black lines) and peptide-treated mice (color lines). IFN-γ production expressed as OD values. LN, lymph nodes. Two-way ANOVA was used to measure overall treatment effects on T cell activation and p-values are written in the graphs. Bonferonni post-hoc testing was used and significant differences are indicated in the graphs (* p<0.05; ** p<0.01; *** p<0.001: **** p<0.0001). LN, lymph nodes. (A) Tolerisation against SAg in LN. (B) Tolerisation against HIP-24DG in LN. (C) Tolerisation against HIP-24HM2 peptide in LN. […]

Solubility of peptides = assay type: physicochemical
Protocol: The solubility of potential apitopes from S—Ag are determined by visual observations and turbidity measurement by UV spectrophotometry at 280 nm. The solubility of the peptides can be modified by adding amino acids ‘GKK’ or ‘KKK’ (or similar) on both the C- and N-terminus of the sequence. Modifications that may be suitable are described in WO2014/072958 (which is hereby incorporated by reference).
For some of these peptides, the parental peptides were insoluble, and solubility is a critical parameter for them to work as a tolerogenic peptide. Several end-terminal modifications can be used and as example used here they were improved by addition of 3 lysines before and after the original peptide sequence (labelled as ‘-KKK’ versions).

| Substance | behaves as apitope (response to peptide presented by fresh or fixed APC) [1] | further results |
| --- | --- | --- |
| HVIFKKISRDKSVTIYLGN-NH2 [HIP-115NE, HVIFKKISRDKSVTIYLGN] | behave as apitopes |  |
| FKKISRDKSVTIY-NH2 [HIP-115NE2, FKKISRDKSVTIY] | behave as apitopes |  |
| VIGLTFRRDLYFSRVQVYPPVG-NH2 [HIP-17GN] | behave as apitopes |  |
| LTLLPLLANNRERRGIALDG-NH2 [HIP-24HM] | behave as apitopes |  |
| HIP-17K1-KKK: '-KKK' version (3 lysines before and after the sequence) of HIP-17K1; its sequence is not printed (KKKTFRRDLYFSRVQKKK) | behave as apitopes |  |
| LTFRRDLYFSRVQVY-NH2 [HIP-17J, LTFRRDLYFSRVQVY] | behave as apitopes |  |
| RERRGIALDGKIKHE-NH2 [HIP-11B, RERRGIALDGKIKHE] | behave as apitopes | tolerization against the peptide itself / peptides of the same region ([2]; LN): tolerization induced; tolerization against SAg ([2]; LN): tolerization induced; tolerization against the peptide itself ([2]; spleen): tolerization induced; tolerization against SAg ([2]; spleen): tolerization induced |
| ERRGIALDGKIKH-NH2 [HIP-11AC1, ERRGIALDGKIKH] | behave as apitopes |  |
| GILVSYQIKVK-NH2 [HIP-12G1, GILVSYQIKVK] | behave as apitopes |  |
| NRERRGIALDGKIKHED-NH2 [HIP-11AC, NRERRGIALDGKIKHED] | behave as apitopes |  |
| KKKVLGILVSYQIKVKLTKKK-NH2 [HIP-12E-KKK] | behave as apitopes |  |
| KKKVIGLTFRRDLYFSRVQVYPPVGKKK-NH2 [HIP-17GN-KKK] | behave as apitopes | tolerization against SAg ([2]; spleen): tolerization induced |
| KKISRDKSVTI-NH2 [HIP-115NE1, KKISRDKSVTI] | behave as apitopes |  |
| LTLLPLLANNRERRGIALDGKIKHEDTNLASSTIIKEG-NH2 [HIP-241125] | behave as apitopes |  |
| PLLANNRERRGI-NH2 [HIP-24HM2, PLLANNRERRGI] | behave as apitopes | solubility (Solubility of peptides): soluble |
